Results published in patent publication US20260256714A1 (priority 2022, published 2026).

Assays:
glucocorticoid receptor = target: T1, glucocorticoid receptor (Homo sapiens, UniProt P04150); assay: fluorescence polarization competition assay (POLARSCREEN Glucocorticoid Receptor Competitor Assay Kit, Red); type: binding
T1 sequence (P04150 1-777): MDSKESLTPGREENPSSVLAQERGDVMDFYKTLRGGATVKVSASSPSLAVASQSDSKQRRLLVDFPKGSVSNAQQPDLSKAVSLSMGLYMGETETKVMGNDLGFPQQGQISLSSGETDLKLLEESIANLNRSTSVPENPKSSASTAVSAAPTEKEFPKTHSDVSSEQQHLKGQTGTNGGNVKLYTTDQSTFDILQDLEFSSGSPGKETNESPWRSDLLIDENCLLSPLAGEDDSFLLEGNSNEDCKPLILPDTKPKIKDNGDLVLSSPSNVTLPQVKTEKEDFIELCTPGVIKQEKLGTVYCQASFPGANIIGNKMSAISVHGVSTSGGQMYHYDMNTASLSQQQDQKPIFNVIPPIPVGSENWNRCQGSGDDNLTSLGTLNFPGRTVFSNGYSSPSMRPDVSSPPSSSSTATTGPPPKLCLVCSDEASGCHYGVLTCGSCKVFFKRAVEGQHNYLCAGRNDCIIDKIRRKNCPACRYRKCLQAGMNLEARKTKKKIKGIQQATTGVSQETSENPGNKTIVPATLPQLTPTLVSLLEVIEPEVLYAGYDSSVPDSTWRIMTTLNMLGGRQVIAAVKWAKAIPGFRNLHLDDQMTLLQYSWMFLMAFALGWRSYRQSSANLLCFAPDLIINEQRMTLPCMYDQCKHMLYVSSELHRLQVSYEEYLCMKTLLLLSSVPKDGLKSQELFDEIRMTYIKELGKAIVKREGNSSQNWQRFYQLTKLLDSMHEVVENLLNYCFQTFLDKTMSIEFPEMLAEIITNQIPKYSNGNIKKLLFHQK
Procedure: The principle of the assay is to determine the binding affinity of a small molecule compound to glucocorticoid receptor by measuring the decrease in polarization caused by the failure of the fluormone tracer to bind to the glucocorticoid receptor in the presence of a small molecule compound that competitively binds to the glucocorticoid receptor.
The excitation wavelength used for the measurement was 535 nm, and the emission wavelength was 590 nm. This experiment was performed three times using the same method and the average value was calculated. A dose-response curve was derived using the measured values, and the IC50 value was calculated by finding the concentration of the sample corresponding to half of the highest measured value.

3T3-L1 cells = assay: Oil Red O staining of MDI-differentiated 3T3-L1 preadipocytes (fat accumulation); type: cell-based; conditions: 0.5 or 1 μM every 48 hours, 6 days of MDI differentiation
Procedure: To differentiate 3T3-L1 cells grown to a confluent state into adipocytes, they were cultured in DMEM medium supplemented with MDI {0.5 mM isobutyl-methylxanthine, 1 μM dexamethasone, and 5 μg/mL insulin} for 48 h, then cultured in DMEM medium supplemented with 5 μg/mL insulin for 48 h, and then cultured in a medium containing 10% fetal bovine serum for 48 h.
The cells were incubated for a total of 6 days, and the cultures were removed at which point differentiation was complete, followed by Oil Red O staining. The cells were fixed with 35 to 40% formaldehyde for 15 minutes, washed with PBS, and stained with Oil Red O solution for 20 minutes. After completion of staining, the cells were washed four times with PBS, dissolved in isopropanol (2-propanol), and O.D. values were measured at 515 nm.

[1] = test system: intracellular glucocorticoid receptor; assay: luciferase assay in GR-GAL4 Reporter (Luc)-HEK293 cells; type: cell-based; conditions: different concentrations, 1 hour before dexamethasone 20 nM, 24 hours incubation
Procedure: In this Example, transfected cells GR-GAL4 Reporter (Luc)-HEK293 (BPS Bioscience, USA) containing a recombinant gene in which luciferase is recombined into the promoter site of GRE were used. Transformed cells were seeded at 30,000 cells per well in 96 wells and stabilized for 16 hours. […] After 1 hour, the cells were treated with dexamethasone, a glucocorticoid agonist, at a concentration of 20 nM and incubated for 24 hours. 100 μL of ONE-STEP™ Luciferase Assay System (BPS Bioscience, USA) was added per well and reacted for 10 minutes, and then luminescence was measured using SpectraMax iD3 (Molecular Devices, USA).

## C[C@@]1(C(=O)O)CC[C@]2(C)CC[C@]3(C)C4=CC(=O)c5c(cc(O)c(O)c5C=O)[C@]4(C)CC[C@@]3(C)[C@@H]2C1 [demethylzeylasteral, (2R,4aS,6aR,6aS,14aS,14bR)-9-formyl-10,11-dihydroxy-2,4a,6a,6a,14a-pentamethyl-8-oxo-1,3,4,5,6,13,14,14b-octahydropicene-2-carboxylic acid]
Glucocorticoid receptor
  IC50: 1.19 µM
3T3-L1 cells
  intracellular fat accumulation (Oil Red O, O.D. at 515 nm): reduction of intracellular fat accumulation in a concentration-dependent manner
[1]
  inhibitory effect on intracellular glucocorticoid receptor activity (luminescence): inhibited intracellular glucocorticoid receptor activity in a concentration-dependent manner
